The results in this text go back to patent publication US20230338340A1, “Methods of Treating Cystic Fibrosis” (The Trustees of Dartmouth College, priority 2020, published 2023).

The first assay has as its target T1, Human-Dab2-DH (Homo sapiens, UniProt P98082).
T1 construct: fused on or other part: N-terminal 10xHis tag with a 3C protease site, cleaved off unless otherwise indicated
T1 sequence (P98082 33-178 limits assumed): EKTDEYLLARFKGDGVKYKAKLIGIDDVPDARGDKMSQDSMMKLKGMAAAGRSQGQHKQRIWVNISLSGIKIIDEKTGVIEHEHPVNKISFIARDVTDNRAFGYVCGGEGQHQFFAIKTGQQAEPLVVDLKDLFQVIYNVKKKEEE
The assay is described as follows: Dab2 FP competition assay via HTS.
Conditions: not given
The format is binding. The procedure: CALP and/or Dab2 inhibition assays were performed in biochemical “mix-and-measure” format in order to evaluate the effects on activation and inhibition of CALP and/or Dab2 by the compounds of the disclosure. Brief assay procedure is provided below. Unless otherwise specified, all of the compounds were obtained from commercial sources.
Dab-2 inhibitors were also identified by FP competition assays via HTS. Human-Dab2-DH, residues 31-191 (Uniprot: P98082), and trDab2-DH (residues 33-178) was subcloned into the pET16b vector via PCR utilizing the restriction enzyme sites of Xhol and BamHI. The construct was designed with a 3C protease cleavage site directly upstream and in-frame with the protein coding sequence. DNA was sequence verified. (0.1 mM) IPTG was used to induce protein expression in E. coli BL21(DE3)RIL cells, after reaching an O.D. of […]. […] Followed by 3C cleavage of the 10×His tag (unless otherwise indicated), and a second nickel affinity column to remove the 3C protease and excess tag. Dab2-DH was dialyzed into FP storage buffer (25 mM Tris pH 8.0, 150 mM NaCl, 0.1 mM TCEP, and 0.02% sodium azide). Fluorescent reporter peptides, TIVR*STA02 (TMR*-[…]) and TMR*STA03 (TMR*-[…]), were purchased commercially with the following sequence where TMR* denotes a N-terminal tetramethylrhodamine group coupled via an aminohexanoic acid linker. An unlabled positive control peptide STA02 ([…]) was also purchased commercially. Inhibitors of Dab2-DH were identified from a variety of sources with various protocols outlined below.
For screens conducted at the Novartis Institutes for BioMedical Research FAST Lab, single-dose HTS assays were performed with libraries comprising ˜52,000 compounds at 20 μM doses. Experiments were conducted as described for screens at the University of Pittsburgh Lab and Drug Discovery Institute, except that Dab2-DH, not trDab2-DH, was used as the protein source.
For screens conducted at the Broad Institute, compound transfers were done using a 384-well pin tool equipped with 100 nL hydrophobic surface coated pins. 100 nL of DMSO (negative control), STA02 (positive control), or library compounds were dispensed into 20 μL of protein (200 nM) and reporter (F*-STA02, 30 nM) mixture with 0.1 mg/ml mouse IgG and 0.5 mM Thesit. Final concentrations in the mixture were DMSO ([…]), STA02 (20 μM), and compounds (18 μM). Plates were incubated for 35-45 minutes before measuring polarization. Compounds were tested in duplicates on two separate plates. Positive and negative controls were included in each individual plate.
For experiments conducted at the University of Pittsburgh Lab and Drug Discovery Institute, single-dose HTS assays were performed with a library containing ˜220,000 compounds. On the day of screening, a master mix of equal parts trDab2-DH (900 nM) and TMP-STA03 (90 nM) was prepared. Compound plates containing assay ready 2 μL aliquots of a 1 mM stock solution in DMSO were thawed, reconstituted in FP buffer to a concentration of 30 μM in 3% DMSO, and five μL transferred to low volume assay plates using a Perkin Elmer MDT. Ten μL of master mix were added by a Microflo bulk liquid dispenser (Biotek, Winooski, VT) and processed as described in the general protocol above. Each plate contained 32 wells of positive (Dab2-DH+probe+DMSO) and negative (Dab2-DH+probe +10 μM STA03) controls. Plates were read at 1.5-h and 4-h on the Envision multilabel reader.
With `COc1c(O)c2c(=O)cc(OC)c3c4c(OC)cc(=O)c5c(O)c(OC)c(CC(C)OC(=O)c6ccccc6)c(c(c1CC(C)OC(=O)Oc1ccc(O)cc1)c23)c54` (stereo not drawn) [Example 20, 1-(3,10-dihydroxy-12-(2-(((4-hydroxyphenoxy)carbonyl)oxy)propyl)-2,6,7,11-tetramethoxy-4,9-dioxo-4,9-dihydroperylen-1-yl)propan-2-yl benzoate], the IC50 – broadly, the midpoint of a concentration-inhibition curve – was found to be 0.51 µM.
The same measure, in the same setting: the figure for `CN(C)[C@@H]1C(=O)C(C(N)=O)=C(O)[C@@]2(O)C(=O)C3=C(O)c4c(O)cccc4[C@@](C)(O)[C@H]3[C@H](O)[C@@H]12` [Example 30, (4S,4aR,5S,5aR,6S,12aR)-4-(dimethylamino)-1,5,6,10,11,12a-hexahydroxy-6-methyl-3,12-dioxo-3,4,4a,5,5a,6,12,12a-octahydrotetracene-2-carboxamide] is 6.02 µM.

The same assay, now with this note: at Cmax; cells printed with %.
In the case of `CC1(C)Cc2ccccc2-c2n[nH]c(=S)n21` [Example 13, 5,5-dimethyl-5,6-dihydro-[1,2,4]triazolo[3,4-a]isoquinoline-3(2H)-thione], the “Inhibitory activity Dab2 at Cmax” value was around −95%.

Staying with this assay, now noted: read-out: Inhibitory activity Dab2 IC50.
Regarding `C=C1C(=O)OC2C(=O)OC(CCCCCCCCCC)C12` (stereo not drawn) [Example 32, 4-decyl-3-methylenedihydrofuro[3,4-b]furan-2,6(3H,4H)-dione], the IC50 was determined as 5.22 µM.
Same read-out and setting: with `Cc1cc(O)c(O)c(Oc2cc(C)cc(O)c2O)c1` [Example 22, 6,6′-oxybis(4-methylbenzene-1,2-diol)] the figure was 0.77 µM; with `O=C1c2c(O)c(Cl)cc3c2[C@@]2(Oc4ccc(O)c5c4[C@]3(O2)[C@@H]2O[C@@H]2C5=O)[C@@H]2O[C@H]12` [Example 34, (1aR,1bS,5aS,6aR,6bS,11aS)-3-chloro-4,10-dihydroxy-1a,5a,6a,11a-tetrahydro-5H,11H-1b,6b-epoxyoxireno[2′,3′:2,3]naphtho[1,8-bc]oxireno[2′,3′:2,3]naphtho[1,8-ef]oxepine-5,11-dione], 2.99 µM.
The same measure, in the same setting: with `CC1CCCCCCCCCC(OC(=O)CCC(=O)O)C(=O)/C=C/C(=O)O1` (stereo not drawn) [Example 27, (E)-4-((16-methyl-2,5-dioxooxacyclohexadec-3-en-6-yl)oxy)-4-oxobutanoic acid] the figure was 3.85 µM.
On the same count and under the same terms, the figure for `O=C1C=C(O)c2c(O)cc(O)cc2C1=O` [Example 17, 4,5,7-trihydroxynaphthalene-1,2-dione] is 8.29 µM; for `COc1ccc(C(=O)C(=O)Nc2ccccc2)c(O)c1` [Example 21, 2-(2-hydroxy-4-methoxyphenyl)-2-oxo-N-phenylacetamide] it is 0.94 µM; for `Cc1cc(O)c(Oc2cc(C)cc(O)c2O)c(O)c1` [Example 23, 3-(2,6-dihydroxy-4-methylphenoxy)-5-methylbenzene-1,2-diol] it is 0.89 µM.
In the case of `CC(=O)C1=C(O)[C@@]2(O)C(=O)c3c(c(C)c4ccc(C)c(O)c4c3O)C[C@H]2[C@@H](N)C1=O` [Example 18, (1R,4aR,12aS)-3-acetyl-1-amino-4,4a,6,7-tetrahydroxy-8,11-dimethyl-12,12a-dihydrotetracene-2,5(1H,4aH)-dione], the IC50 was found to be 8.86 µM.
Regarding `CC1=C(O)C(=O)C=C2C1=CC=C1[C@@]2(C)CC[C@@]2(C)[C@@H]3C[C@](C)(C(=O)O)CC[C@]3(C)CC[C@]12C` [Example 24, (2R,4aS,6aS,12bR,14aS,14bR)-10-hydroxy-2,4a,6a,9,12b,14a-hexamethyl-11-oxo-1,2,3,4,4a,5,6,6a,11,12b,13,14,14a,14b-tetradecahydropicene-2-carboxylic acid], the IC50 is 0.66 µM.
Still for that read-out and setting: the figure for `O=C(/C=C/c1ccc(O)c(O)c1)OC(Cc1ccc(O)c(O)c1)C(=O)O` (stereo not drawn) [Example 25, (E)-3-(3,4-dihydroxyphenyl)-2-((3-(3,4-dihydroxyphenyl)acryloyl)oxy)propanoic acid] is 3.22 µM.
Still for that read-out and setting: with `COC(=O)C1=COC(OC2OC(CO)C(O)C(O)C2O)C2C(CO)=CCC12O` (stereo not drawn) [Example 28, methyl 4a-hydroxy-7-(hydroxymethyl)-1-((3,4,5-trihydroxy-6-(hydroxymethyl)tetrahydro-2H-pyran-2-yl)oxy)-1,4a,5,7a-tetrahydrocyclopenta[c]pyran-4-carboxylate] the figure was 0.39 µM; with `CC[N+](C)(CC)CCC[n+]1c(-c2ccccc2)c2cc(N)ccc2c2ccc(N)cc21` [Example 29, 3,8-diamino-5-(3-(diethyl(methyl)ammonio)propyl)-6-phenylphenanthridin-5-ium bromide], 9.41 µM.
In the case of `Cc1occ2c1C(=O)c1c(O)ccc(O)c1C2` [Example 26, 5,8-dihydroxy-3-methylnaphtho[2,3-c]furan-4(9H)-one], the IC50 was determined as 0.69 µM.
Same read-out and setting: the figure for `CC(C)c1cc2c(c(O)c1O)C13CCCC(C)(C)C1CC2OC3=O` (stereo not drawn) [Example 16, 5,6-dihydroxy-7-isopropyl-1,1-dimethyl-1,3,4,9,10,10a-hexahydro-2H-9,4a-(epoxymethano)phenanthren-12-one] is 6.89 µM.
The same measure, in the same setting: with `CC(C)c1cc2c(c(O)c1O)[C@@]13CCCC(C)(C)[C@@H]1C[C@@H]2OC3=O` [Example 31, (4aR,9S,10aS)-5,6-dihydroxy-7-isopropyl-1,1-dimethyl-1,3,4,9,10,10a-hexahydro-2H-9,4a-(epoxymethano)phenanthren-12-one] the figure was 5.37 µM; with `COC1=CC(=O)C(O)=C/C1=C\C=C\c1ccccc1` [Example 19, (E)-2-hydroxy-5-methoxy-4-((E)-3-phenylallylidene)cyclohexa-2,5-dien-1-one], 7.73 µM; with `CC1OC2CC(=O)OC2C2=C1C(=O)c1c(O)cccc1C2=O` (stereo not drawn) [Example 33, 7-hydroxy-5-methyl-3,3a,5,11b-tetrahydro-2H-benzo[g]furo[3,2-c]isochromene-2,6,11-trione], 8.02 µM.
On the same count and under the same terms, with `COc1c(O)cc(C(C)C(C)=O)c(O)c1OC` (stereo not drawn) [Example 35, 3-(2,5-dihydroxy-3,4-dimethoxyphenyl)butan-2-one] the figure was 1.17 µM.
